Holding throughout (assay type): functional, cell-based
The subject of experiment [1] is RAW264.7. The experiment in a line: Antiinflammatory activity in mouse RAW264.7 cells assessed as inhibition of LPS-stimulated NO production at 5 to 20 ug/mL after 24 hrs by […].
For experiment [2], the system named is RAW264.7. The experiment in a line: Suppression of iNOS mRNA expression in mouse RAW264.7 cells.
The subject of experiment [3] is RAW264.7. The experiment in a line: Antiinflammatory activity in mouse RAW264.7 cells assessed as inhibition of LPS-stimulated nitric oxide production after 24 hrs by […]. To be noted: RAW264.7, 24 h. (In general: An ELISA detects its analyte on a solid surface through an enzyme-linked reagent.)

The source made the active and inactive calls. No cut-off for these calls is given here.

Regarding `CCCCCCC/C=C(\C(=O)CCCCCCCC(=O)O)c1ccccc1`, the outcome in the experiment on RAW264.7 [1] was inactive.

For `CCCCCCCC/C=C(\C(=O)CCCCCCC(=O)O)c1ccccc1`, the result in the experiment on RAW264.7 [1] was inactive. By IC50 is commonly meant the midpoint of a concentration-inhibition curve. For the molecule `CCCCCCCCC(=O)/C=C/CCCCCCC(=O)O`, the result in the experiment on RAW264.7 [2] was Active. For the same molecule, the IC50 with RAW264.7 [3] is less than 33.8 µM.

Regarding `CCCCCCC/C=C(\C(=O)CCCCCCCC(=O)OC)c1ccccc1`, the result in the experiment on RAW264.7 [1] was inactive. Still for that read-out and setting: the value for `CCCCCCCC(=O)/C(=C\CCCCCCCC(=O)OC)c1ccccc1` was “inactive”.

With `CCCCCCC/C=C/C(=O)CCCCCCCC(=O)O`, the outcome in the experiment with RAW264.7 [2] was Active. The IC50 in the experiment with RAW264.7 [3] is less than 33.8 µM.
